Measurements: US9409905B2, “Antibacterial compounds and methods for use” (PTC THERAPEUTICS, INC., priority 2011, dated 2016)
Converted amounts (≈) assume the structure as drawn.

Experiments:
E. coli LZ3111 = assay: Antibacterial activity, MIC, quinolone resistant strain (Table 2); format: cell-based; conditions: Escherichia coli, LZ3111, read-out: MIC LZ3111
How it was run: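 Microbroth dilution method; MIC (μg/mL) is the lowest drug concentration preventing macroscopically visible growth under test conditions.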

E. coli 25922 = assay: Antibacterial activity, microbroth dilution MIC (Table 1); format: cell-based, Escherichia coli; conditions: Escherichia coli; microbroth dilution; control Gram-negative E. coli 25922 strain; read-out: MIC, 25922
How it was run: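 Read-out: visual absence of growth. The lowest concentration meeting this gives the MIC, expressed in μg/mL, with microbroth dilution as the method.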

[1] = system: Staphylococcus aureus (S. aureus) 29213; assay: as above; format: cell-based; conditions: microbroth dilution, Gram-positive S. aureus 29213, read-out: MIC, 29213
How it was run: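 Using broth microdilution, MIC endpoints (μg/mL) mark where visible growth no longer appears; the panel spans sensitive and control Gram-negative strains plus a Gram-positive strain.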

[2] = system: Escherichia coli (E. coli) BAS849; assay: as above; format: cell-based; conditions: microbroth dilution, super sensitive Gram-negative E. coli BAS849, read-out: MIC, BAS849
How it was run: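 Broth microdilution against S. aureus 29213, E. coli 25922 and hypersensitive E. coli BAS849. MIC in μg/mL is the lowest drug concentration preventing macroscopically visible growth under test conditions.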

Row | Structure (SMILES) | MIC (E. coli LZ3111) | MIC (E. coli 25922) | MIC [1] | MIC [2]
1 | CCc1cc(C(=O)O)c(=O)[nH]c1-c1cc(C)c2c(c1)cc(CN1CCOCC1)n2C [Cpd 103, 6-(1,7-dimethyl-2-(morpholinomethyl)-1H-indol-5-yl)-5-ethyl-2-oxo-1,2-dihydropyridine-3-carboxylic acid] | 12.5 to 150 µg/mL (≈ 30.5 to 366 µM) | 12.5 to 150 µg/mL (≈ 30.5 to 366 µM) | 12.5 to 150 µg/mL (≈ 30.5 to 366 µM) | < 1 µg/mL
2 | CCc1cc(C(=O)O)c(=O)[nH]c1-c1ccc2c(c1)cc1n2CCNC1 [Cpd 66, 5-ethyl-2-oxo-6-(1,2,3,4-tetrahydropyrazino[1,2-a]indol-8-yl)-1,2-dihydropyridine-3-carboxylic acid] | 12.5 to 150 µg/mL (≈ 37.1 to 445 µM) | < 1 µg/mL | 12.5 to 150 µg/mL (≈ 37.1 to 445 µM) | < 1 µg/mL
3 | CCc1c(-c2ccc3c(c2)cc(CN[C@@H](C)C(F)(F)F)n3C)[nH]c(=O)c(C(=O)O)c1O [Cpd 273, (S)-5-ethyl-4-hydroxy-6-(1-methyl-2-((1,1,1-trifluoropropan-2-ylamino)methyl)-1H-indol-5-yl)-2-oxo-1,2-dihydropyridine-3-carboxylic acid] | 12.5 to 150 µg/mL (≈ 28.6 to 343 µM) | 12.5 to 150 µg/mL (≈ 28.6 to 343 µM) | 3.5 to 12.5 µg/mL (≈ 8 to 28.6 µM) | < 1 µg/mL
4 | CCc1c(-c2ccc3c(c2)c(C#N)cn3C)[nH]c(=O)c(C(=O)O)c1O [Cpd 359, 6-(3-cyano-1-methyl-1H-indol-5-yl)-5-ethyl-4-hydroxy-2-oxo-1,2-dihydropyridine-3-carboxylic acid] | 1 to 3.5 µg/mL (≈ 2.96 to 10.4 µM) | 12.5 to 150 µg/mL (≈ 37.1 to 445 µM) | 12.5 to 150 µg/mL (≈ 37.1 to 445 µM) | 3.5 to 12.5 µg/mL (≈ 10.4 to 37.1 µM)
5 | CCc1c(-c2ccc3c(c2)cc(CNCC(C)(C)C)n3C)[nH]c(=O)c(C(=O)O)c1O.Cl [Cpd 237, 5-ethyl-4-hydroxy-6-(1-methyl-2-((neopentylamino)methyl)-1H-indol-5-yl)-2-oxo-1,2-dihydropyridine-3-carboxylic acid hydrochloride] | 12.5 to 150 µg/mL | 1 to 3.5 µg/mL | 3.5 to 12.5 µg/mL | < 1 µg/mL
6 | CCc1cc(C(=O)O)c(=O)[nH]c1-c1ccc2c(c1)cc(C(C)(C)N1CCCC1)n2C [Cpd 88, 5-ethyl-6-(1-methyl-2-(2-(pyrrolidin-1-yl)propan-2-yl)-1H-indol-5-yl)-2-oxo-1,2-dihydropyridine-3-carboxylic acid] | 12.5 to 150 µg/mL (≈ 30.7 to 368 µM) | 3.5 to 12.5 µg/mL (≈ 8.59 to 30.7 µM) | 12.5 to 150 µg/mL (≈ 30.7 to 368 µM) | < 1 µg/mL
7 | CCc1cc(C(=O)O)c(=O)[nH]c1-c1ccc2c(c1)cc(CNC)n2C [Cpd 112, 5-ethyl-6-(1-methyl-2-((methylamino)methyl)-1H-indol-5-yl)-2-oxo-1,2-dihydropyridine-3-carboxylic acid] | 12.5 to 150 µg/mL (≈ 36.8 to 442 µM) | < 1 µg/mL | 12.5 to 150 µg/mL (≈ 36.8 to 442 µM) | < 1 µg/mL
8 | CCc1cc(C(=O)O)c(=O)[nH]c1-c1ccc2c(c1)cc(CN[C@H](CC)c1ccccc1)n2C [Cpd 118, (R)-5-ethyl-6-(1-methyl-2-((1-phenylpropylamino)methyl)-1H-indol-5-yl)-2-oxo-1,2-dihydropyridine-3-carboxylic acid] | 12.5 to 150 µg/mL (≈ 28.2 to 338 µM) | 1 to 3.5 µg/mL (≈ 2.25 to 7.89 µM) | 1 to 3.5 µg/mL (≈ 2.25 to 7.89 µM) | < 1 µg/mL
9 | CCc1c(-c2ccc3c(c2)cc(CN2CCCCC2C(F)(F)F)n3C)[nH]c(=O)c(C(=O)O)c1O (stereo not drawn) [Cpd 258, 5-ethyl-4-hydroxy-6-(1-methyl-2-((2-(trifluoromethyl)piperidin-1-yl)methyl)-1H-indol-5-yl)-2-oxo-1,2-dihydropyridine-3-carboxylic acid] | 12.5 to 150 µg/mL (≈ 26.2 to 314 µM) | 12.5 to 150 µg/mL (≈ 26.2 to 314 µM) | 3.5 to 12.5 µg/mL (≈ 7.33 to 26.2 µM) | < 1 µg/mL
10 | Cn1c(CNCC2CC2)cc2cc(-c3[nH]c(=O)c(C(=O)O)c(O)c3-c3ccc(F)cc3)ccc21 [Cpd 311, 6-(2-((cyclopropylmethylamino)methyl)-1-methyl-1H-indol-5-yl)-5-(4-fluorophenyl)-4-hydroxy-2-oxo-1,2-dihydropyridine-3-carboxylic acid] | 12.5 to 150 µg/mL (≈ 27.1 to 325 µM) | 1 to 3.5 µg/mL (≈ 2.17 to 7.58 µM) | 12.5 to 150 µg/mL (≈ 27.1 to 325 µM) | < 1 µg/mL
11 | CCc1cc(C(=O)O)c(=O)[nH]c1-c1ccc2c(c1)cc(CNCc1ccccc1)n2C [Cpd 114, 6-(2-((benzylamino)methyl)-1-methyl-1H-indol-5-yl)-5-ethyl-2-oxo-1,2-dihydropyridine-3-carboxylic acid] | 12.5 to 150 µg/mL (≈ 30.1 to 361 µM) | < 1 µg/mL | 3.5 to 12.5 µg/mL (≈ 8.42 to 30.1 µM) | < 1 µg/mL
12 | CCc1cc(C(=O)O)c(=O)[nH]c1-c1cc2cc(CN3CCOCC3)n(C)c2cc1C [Cpd 94, 6-(1,6-dimethyl-2-(morpholinomethyl)-1H-indol-5-yl)-5-ethyl-2-oxo-1,2-dihydropyridine-3-carboxylic acid] | 12.5 to 150 µg/mL (≈ 30.5 to 366 µM) | 12.5 to 150 µg/mL (≈ 30.5 to 366 µM) | 12.5 to 150 µg/mL (≈ 30.5 to 366 µM) | 12.5 to 150 µg/mL (≈ 30.5 to 366 µM)
